The source of these data is patent publication US9387214B2, “Method of identifying therapies for pulmonary hypertension” (United Therapeutics Corporation, priority 2012, dated 2016).

Entries after “also recorded” stand apart in the source; their conditions may differ.

The experiment deals with human erythrocytes. Kind of experiment: Erythrocyte ATP release. The experiment is classed as cell-based. The method, then:
Erythrocyte ATP release was measured in both the absence and presence of (a) the PGI2 agonist, treprostinil in the form of UT-15 or its vehicle, saline, and (b) alone or in combination with the selective PDE5 inhibitor, zapranist (ZAP, 10 μM).

Turning to `CCCCC[C@H](O)CC[C@@H]1[C@H]2Cc3cccc(OCC(=O)O)c3C[C@H]2C[C@H]1O` [UT-15, treprostinil], the “ATP release from erythrocytes” value (UT-15 30 nM alone, n=7) is listed as “no ATP release was detected”; the “ATP release from erythrocytes” value (UT-15 30 nM, cells pretreated with ZAP 10 μM, n=7) is listed as “induce a response; also recorded: ATP release was stimulated”; the “ATP release from erythrocytes” value (UT-15 100 nM alone, n=7) is listed as “no ATP release was detected”; the “ATP release from erythrocytes” value (UT-15 100 nM, cells pretreated with ZAP 10 μM, n=7) is listed as “induce a response; also recorded: ATP release was stimulated”. Besides, the “ATP release from erythrocytes compared to controls” value (UT-15 1 uM alone, n=7) is on record as “increase in ATP release”. Moreover, the “ATP release from human erythrocytes” value is “does not stimulate ATP release” (UT-15 alone at 10 to 100 nM, FIG. 3) and “stimulates increases in ATP release” (UT-15 alone, FIG. 2, concentration not printed in legend).
For the compound `CCCOc1ccccc1-c1nc2nn[nH]c2c(=O)[nH]1` [zapranist], where the note is “FIG. 2, concentration not printed in legend”, the “potentiation of UT-15-induced increases in ATP release” value is given as “potentiated”. Further, the “potentiation of UT-15-induced ATP release” value (ZAP 10 μM pretreatment, UT-15 1 uM, P<0.05) is “potentiated”.
